Data set [1] deals with hyperuricemia mice. Kind of data set: Serum uric acid level in potassium oxonate + hypoxanthine hyperuricemia mice. The format is in vivo, Kunming mice. Conditions: 7 days, normal 196, model 313 μmol/L. As to the method:
(§1) Except for the normal control group by intraperitoneal injection and intragastric administration of distilled water, the other groups were intraperitoneally injected with oxazine potassium salt at a dose of 100 mg/kg/d, and simultaneously intragastrically with a dose of 600 mg/kg/d hypoxanthine for modeling. […] Low, middle, and high-dose Agrocybe aegerita water extract administration group (Agrocybe aegerita water extract, AAW) were respectively 50, 100, 200 mg/kg concentration of the Agrocybe aegerita water extract prepared in Example 2 100 mg/kg/d for intragastric administration. […] The blood samples were separated and the serum was stored at −20° C. The organs of the mice were removed, including the liver, spleen, and kidneys, and washed with physiological saline solution. Then blot it dry with an ordinary filter and weigh it. […] (8) Statistical analysis is performed using the professional data processing program SPSS (Release 11.5, SPSS Inc., 2001). All data are expressed as mean±standard error (S.D.) and analyzed by one-way analysis of variance (ANOVA), and group means were compared by two-tailed Student's t test. Differences with statistical significance (P<0.05 or P<0.01) are indicated by the following symbols: There is a differences from the normal control group: *P<0.05, **P<0.01. […]

The test system of data set [2] is hyperuricemia mice. Nature of the data set: Urine uric acid level in hyperuricemia mice. The format is in vivo, Kunming mice. As to conditions: normal 605, model 293 μmol/L. As for the experimental part:
as §1

Data set [3] relates to hyperuricemia mice. Nature of the data set: Serum urea nitrogen (BUN) level, renal function of hyperuricemia mice. The format is in vivo, Kunming mice. As to conditions: allopurinol group; normal 4.47, model 5.96 mmol/L. As for the experimental part: as §1
Data set [4] in a line: Body weight change of mice. The format is in vivo, Kunming mice. As to conditions: compared with normal group, 7 days, all doses. As to the method:
Except for the normal control group by intraperitoneal injection and intragastric administration of distilled water, the other groups were intraperitoneally injected with oxazine potassium salt at a dose of 100 mg/kg/d, and simultaneously intragastrically with a dose of 600 mg/kg/d hypoxanthine for modeling. […] Low, middle, and high-dose Agrocybe aegerita water extract administration group (Agrocybe aegerita water extract, AAW) were respectively 50, 100, 200 mg/kg concentration of the Agrocybe aegerita water extract prepared in Example 2 100 mg/kg/d for intragastric administration. […] (8) Statistical analysis is performed using the professional data processing program SPSS (Release 11.5, SPSS Inc., 2001). All data are expressed as mean±standard error (S.D.) and analyzed by one-way analysis of variance (ANOVA), and group means were compared by two-tailed Student's t test. Differences with statistical significance (P<0.05 or P<0.01) are indicated by the following symbols: There is a differences from the normal control group: *P<0.05, **P<0.01. There is a difference between the control and PO and HX-induced hyperuricemia model group, #P<0.05, ##P<0.01.

For data set [5], the system named is hyperuricemia mice. Kind of data set: Liver coefficient of mice. The format is in vivo, Kunming mice. As to conditions: all treatment groups. As to the method:
(§2) Except for the normal control group by intraperitoneal injection and intragastric administration of distilled water, the other groups were intraperitoneally injected with oxazine potassium salt at a dose of 100 mg/kg/d, and simultaneously intragastrically with a dose of 600 mg/kg/d hypoxanthine for modeling. […] Low, middle, and high-dose Agrocybe aegerita water extract administration group (Agrocybe aegerita water extract, AAW) were respectively 50, 100, 200 mg/kg concentration of the Agrocybe aegerita water extract prepared in Example 2 100 mg/kg/d for intragastric administration. […] The blood samples were separated and the serum was stored at −20° C. The organs of the mice were removed, including the liver, spleen, and kidneys, and washed with physiological saline solution. Then blot it dry with an ordinary filter and weigh it. […] The supernatant was retained for XOD activity analysis and Western blot analysis. (8) Statistical analysis is performed using the professional data processing program SPSS (Release 11.5, SPSS Inc., 2001). All data are expressed as mean±standard error (S.D.) and analyzed by one-way analysis of variance (ANOVA), and group means were compared by two-tailed Student's t test. Differences with statistical significance (P<0.05 or P<0.01) are indicated by the following symbols: There is a differences from the normal control group: *P<0.05, **P<0.01. […]

The subject of data set [6] is hyperuricemia mice. Nature of the data set: Kidney (renal) coefficient and kidney observation of mice. The data set is classed as in vivo, Kunming mice. As to the method:
as §2

In the next data set the test system is URAT1. Kind of data set: URAT1 expression in mouse kidney by ELISA kit. The format is in vivo. As to conditions: allopurinol group; normal 96.95, model 104.85 pg/mL. As to the method:
(§3) Except for the normal control group by intraperitoneal injection and intragastric administration of distilled water, the other groups were intraperitoneally injected with oxazine potassium salt at a dose of 100 mg/kg/d, and simultaneously intragastrically with a dose of 600 mg/kg/d hypoxanthine for modeling. […] Low, middle, and high-dose Agrocybe aegerita water extract administration group (Agrocybe aegerita water extract, AAW) were respectively 50, 100, 200 mg/kg concentration of the Agrocybe aegerita water extract prepared in Example 2 100 mg/kg/d for intragastric administration. The normal control group and the hyperuricemia model control group were gavage with the same volume of pure water for 7 consecutive days, and in the 1, 3, 5, and 7 days to weigh the mice.
(4) Take the organs obtained in step (2) and calculate the organ coefficients (liver coefficient, spleen coefficient and kidney coefficient) by dividing […]. […]
(§4) (8) Statistical analysis is performed using the professional data processing program SPSS (Release 11.5, SPSS Inc., 2001). All data are expressed as mean±standard error (S.D.) and analyzed by one-way analysis of variance (ANOVA), and group means were compared by two-tailed Student's t test. […]
On the technique in general: An ELISA detects its analyte on a solid surface through an enzyme-linked reagent.

The test system of data set [7] is OAT1 (organic anion transporter 1). Nature of the data set: Western blot of kidney samples, OAT1 protein expression. Conditions: compared with the model group, each dose group. The data set is classed as in vivo, mouse. As to the method: as §3, with “mice. […]” for “mice.”
(7) Western blot analysis of kidney samples. Using GAPDH (glyceraldehyde-3-phosphate dehydrogenase) as an internal control, the expression of proteins including URAT1 (urate transporter 1) and OAT1 (organic anion transporter 1) were detected.
as §4
(In general: Immunoblotting shows a protein as a band on a membrane.)

Take `Oc1ncnc2[nH]ncc12` [allopurinol]: the “blood uric acid of hyperuricemia mice” value in the data set with hyperuricemia mice [1] (5 mg/kg intragastric) came out at 105 µmol. For the same compound, the “urine uric acid level” value in the data set with hyperuricemia mice [2] (allopurinol group (5 mg/kg per method)) was found to be 267 µmol/L. Also, in the data set with hyperuricemia mice [3], the “serum BUN” value is on record as 4.74 mmol/L. Moreover, the “effect on body weight” value in data set [4] was “inhibited the weight increase of mice”. In addition, in the data set with hyperuricemia mice [5], the “liver coefficient, effect on liver function” value is reported as “little effect on liver function”. This compound displayed a renal coefficient in the data set on hyperuricemia mice [6] (allopurinol group, normal 1.25%) of 1.42%. In the data set with hyperuricemia mice [6] (not observed in other groups), the kidney observation result is “vesicular nephritis was observed”. For the same compound, the “URAT1 protein expression level (ELISA, kidney)” value in the data set on URAT1 was found to be 151.96 pg/mL.

For the compound `CCc1oc2ccccc2c1C(=O)c1cc(Br)c(O)c(Br)c1` [benzbromarone], the “blood uric acid of hyperuricemia mice” value in the data set with hyperuricemia mice [1] (7.8 mg/kg intragastric) came out at 206 µmol. The “urine uric acid level” value with hyperuricemia mice [2] (7.8 mg/kg) worked out at 408 µmol/L. In addition, the “OAT1 protein expression (Western blot, gray analysis)” value in data set [7] is “increase the expression of OAT1”.
